Experimental data reported in paper PMC7265341, “Quantifying CDK inhibitor selectivity in live cells” (Nature Communications, 2020).
Read-outs that look alike come from different tables or passages of the source.

Key:
[1] = molecular target: CDK7 (Homo sapiens, UniProt P50613); test: NanoBRET live-cell target engagement, NanoLuc-CDK7 in HEK-293; type: binding
[2] = molecular target: CDK8/Cyclin C (Homo sapiens, UniProt P49336); test: NanoBRET live-cell target engagement, NanoLuc-CDK8/Cyclin C in HEK-293; type: binding; conditions: CDK8/C; for inhibition at 10 µM: read-out: Inhibition at 10µM (%)
[3] = molecular target: T1, CDK11A/Cyclin L2 (Homo sapiens, UniProt Q9UQ88); test: NanoBRET live-cell target engagement, CDK11A-NanoLuc/Cyclin L2 in HEK-293; type: binding; conditions: CDK11a/L2; for inhibition at 10 µM: read-out: Inhibition at 10µM (%)
T1 sequence (Q9UQ88 1-783): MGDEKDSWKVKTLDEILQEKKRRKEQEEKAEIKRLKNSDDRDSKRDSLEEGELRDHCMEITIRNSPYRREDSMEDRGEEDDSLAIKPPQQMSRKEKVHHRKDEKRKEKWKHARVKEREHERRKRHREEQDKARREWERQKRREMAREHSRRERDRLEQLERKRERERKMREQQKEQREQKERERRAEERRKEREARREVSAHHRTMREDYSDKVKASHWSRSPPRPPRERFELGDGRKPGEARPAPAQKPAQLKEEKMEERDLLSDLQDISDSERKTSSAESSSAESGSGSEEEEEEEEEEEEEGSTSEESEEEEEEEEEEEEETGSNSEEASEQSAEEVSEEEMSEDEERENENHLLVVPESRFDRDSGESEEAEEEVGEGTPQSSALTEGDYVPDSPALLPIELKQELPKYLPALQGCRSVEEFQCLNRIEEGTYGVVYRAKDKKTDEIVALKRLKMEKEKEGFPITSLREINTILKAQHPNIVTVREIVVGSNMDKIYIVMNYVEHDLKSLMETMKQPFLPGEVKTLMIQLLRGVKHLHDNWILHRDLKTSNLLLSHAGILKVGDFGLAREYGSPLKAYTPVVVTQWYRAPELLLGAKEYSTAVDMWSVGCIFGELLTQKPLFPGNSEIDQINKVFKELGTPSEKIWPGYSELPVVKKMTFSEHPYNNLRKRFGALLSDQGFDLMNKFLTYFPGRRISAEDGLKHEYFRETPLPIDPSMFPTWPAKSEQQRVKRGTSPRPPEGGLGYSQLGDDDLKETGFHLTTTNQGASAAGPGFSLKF

[4] = molecular target: CDK11B/Cyclin L2 (Homo sapiens, UniProt P21127); test: NanoBRET live-cell target engagement, CDK11B-NanoLuc/Cyclin L2 in HEK-293; type: binding; conditions: CDK11b/L2; for inhibition at 10 µM: read-out: Inhibition at 10µM (%)
[5] = molecular target: CDK20/Cyclin H (Homo sapiens, UniProt Q8IZL9); test: NanoBRET live-cell target engagement, NanoLuc-CDK20/Cyclin H in HEK-293; type: binding; conditions: for inhibition at 10 µM: read-out: Inhibition at 10µM (%), CDK20/H
[6] = molecular target: T2, CDK10/Cyclin L2 (Homo sapiens, UniProt Q15131); test: cell-based
[7] = molecular target: CDK19/Cyclin C (Homo sapiens, UniProt Q9BWU1); test: NanoBRET live-cell target engagement, NanoLuc-CDK19/Cyclin C in HEK-293; conditions: for inhibition at 10 µM: read-out: Inhibition at 10µM (%), CDK19/C
[8] = molecular target: T2, CDK10/Cyclin L2; test: NanoBRET live-cell target engagement, CDK10-NanoLuc/Cyclin L2 in HEK-293; conditions: for IC50: n=1; for inhibition at 10 µM: read-out: Inhibition at 10µM (%), CDK10/L2
[9] = molecular target: CDK1/Cyclin E1 (Homo sapiens, UniProt P06493); test: NanoBRET live-cell target engagement, CDK1-NanoLuc/Cyclin E1 in HEK-293; type: binding; conditions: CDK1/E1, 10µM
[10] = molecular target: CDK2/Cyclin E1 (Homo sapiens, UniProt P24941); test: NanoBRET live-cell target engagement, CDK2-NanoLuc/Cyclin E1 in HEK-293; type: binding; conditions: CDK2/E1, 10µM
[11] = molecular target: CDK3/Cyclin E1 (Homo sapiens, UniProt Q00526); test: NanoBRET live-cell target engagement, CDK3-NanoLuc/Cyclin E1 in HEK-293; type: binding; conditions: CDK3/E1, 10µM
[12] = molecular target: CDK4/Cyclin D1 (Homo sapiens, UniProt P11802); test: NanoBRET live-cell target engagement, NanoLuc-CDK4/Cyclin D1 in HEK-293; type: binding; conditions: CDK4/D1, 10µM
[13] = molecular target: CDK5/CDK5R1 (Homo sapiens, UniProt Q00535); test: NanoBRET live-cell target engagement, CDK5-NanoLuc/CDK5R1 in HEK-293; type: binding; conditions: CDK5/CDK5R1, 10µM
[14] = molecular target: CDK6/Cyclin D1 (Homo sapiens, UniProt Q00534); test: NanoBRET live-cell target engagement, NanoLuc-CDK6/Cyclin D1 in HEK-293; type: binding; conditions: CDK6/D1, 10µM
[15] = molecular target: CDK9/Cyclin K (Homo sapiens, UniProt P50750); test: NanoBRET live-cell target engagement, NanoLuc-CDK9/Cyclin K in HEK-293; type: binding; conditions: CDK9/K, 10µM
[16] = molecular target: CDK12/Cyclin K (Homo sapiens, UniProt Q9NYV4); test: NanoBRET live-cell target engagement, CDK12-NanoLuc/Cyclin K in HEK-293; type: binding; conditions: CDK12/K, 10µM
[17] = molecular target: CDK13/Cyclin K (Homo sapiens, UniProt Q14004); test: NanoBRET live-cell target engagement, CDK13-NanoLuc/Cyclin K in HEK-293; type: binding; conditions: CDK13/K, 10µM
[18] = molecular target: CDK14/Cyclin Y (Homo sapiens, UniProt O94921); test: NanoBRET live-cell target engagement, CDK14-NanoLuc/Cyclin Y in HEK-293; type: binding; conditions: CDK14/Y, 10µM
[19] = molecular target: CDK15/Cyclin Y (Homo sapiens, UniProt Q96Q40); test: NanoBRET live-cell target engagement, NanoLuc-CDK15/Cyclin Y in HEK-293; type: binding; conditions: CDK15/Y, 10µM
[20] = molecular target: CDK16/Cyclin Y (Homo sapiens, UniProt Q00536); test: NanoBRET live-cell target engagement, CDK16-NanoLuc/Cyclin Y in HEK-293; type: binding; conditions: CDK16/Y; 10µM
[21] = molecular target: CDK17/Cyclin Y (Homo sapiens, UniProt Q00537); test: NanoBRET live-cell target engagement, CDK17-NanoLuc/Cyclin Y in HEK-293; type: binding; conditions: CDK17/Y, 10µM
[22] = molecular target: CDK18/Cyclin Y (Homo sapiens, UniProt Q07002); test: NanoBRET live-cell target engagement, CDK18-NanoLuc/Cyclin Y in HEK-293; type: binding; conditions: CDK18/Y, 10µM
[23] = system: all 21 human CDKs; test: Live-cell selectivity profile across all 21 CDK/cyclin complexes in HEK-293; type: binding; conditions: live cells

Chain of CDK8/Cyclin C (P49336 whole entry): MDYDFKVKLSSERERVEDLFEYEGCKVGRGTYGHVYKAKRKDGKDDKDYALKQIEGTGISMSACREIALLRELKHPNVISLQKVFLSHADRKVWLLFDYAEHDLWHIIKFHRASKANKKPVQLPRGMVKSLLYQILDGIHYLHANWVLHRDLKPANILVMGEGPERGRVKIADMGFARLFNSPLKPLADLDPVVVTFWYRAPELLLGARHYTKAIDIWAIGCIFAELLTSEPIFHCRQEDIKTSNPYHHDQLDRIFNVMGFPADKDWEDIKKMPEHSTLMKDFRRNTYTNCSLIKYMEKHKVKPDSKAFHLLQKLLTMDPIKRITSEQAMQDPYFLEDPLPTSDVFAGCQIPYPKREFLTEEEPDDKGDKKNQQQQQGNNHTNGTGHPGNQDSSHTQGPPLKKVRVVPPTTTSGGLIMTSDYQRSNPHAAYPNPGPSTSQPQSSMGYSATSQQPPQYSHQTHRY
Chain of CDK8/Cyclin C (P24863 whole entry partner): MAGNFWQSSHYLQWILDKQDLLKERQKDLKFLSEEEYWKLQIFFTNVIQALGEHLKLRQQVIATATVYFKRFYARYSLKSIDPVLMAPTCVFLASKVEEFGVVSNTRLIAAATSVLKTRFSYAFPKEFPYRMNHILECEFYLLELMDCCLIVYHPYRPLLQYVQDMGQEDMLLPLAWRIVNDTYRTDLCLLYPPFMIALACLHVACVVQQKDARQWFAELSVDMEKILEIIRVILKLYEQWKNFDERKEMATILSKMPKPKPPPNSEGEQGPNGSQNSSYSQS
Chain of CDK20/Cyclin H (Q8IZL9 whole entry): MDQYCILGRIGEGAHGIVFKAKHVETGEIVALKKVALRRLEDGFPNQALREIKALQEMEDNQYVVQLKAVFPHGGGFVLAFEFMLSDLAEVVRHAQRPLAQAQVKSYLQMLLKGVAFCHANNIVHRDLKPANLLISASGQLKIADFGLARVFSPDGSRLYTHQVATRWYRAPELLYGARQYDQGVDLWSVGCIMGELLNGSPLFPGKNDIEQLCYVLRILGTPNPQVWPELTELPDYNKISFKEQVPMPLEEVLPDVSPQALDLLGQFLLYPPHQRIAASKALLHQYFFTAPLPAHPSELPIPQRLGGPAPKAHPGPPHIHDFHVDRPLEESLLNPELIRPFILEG
Chain of CDK20/Cyclin H (P51946 whole entry partner): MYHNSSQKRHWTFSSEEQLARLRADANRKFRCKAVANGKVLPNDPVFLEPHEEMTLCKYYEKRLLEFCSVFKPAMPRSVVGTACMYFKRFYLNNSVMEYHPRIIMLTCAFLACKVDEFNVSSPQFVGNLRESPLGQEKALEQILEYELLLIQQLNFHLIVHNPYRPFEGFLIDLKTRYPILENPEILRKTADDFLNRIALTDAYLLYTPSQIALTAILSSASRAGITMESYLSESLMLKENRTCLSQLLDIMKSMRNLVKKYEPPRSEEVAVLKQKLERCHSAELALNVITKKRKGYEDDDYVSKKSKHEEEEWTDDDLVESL
Chain of CDK18/Cyclin Y (Q07002 whole entry): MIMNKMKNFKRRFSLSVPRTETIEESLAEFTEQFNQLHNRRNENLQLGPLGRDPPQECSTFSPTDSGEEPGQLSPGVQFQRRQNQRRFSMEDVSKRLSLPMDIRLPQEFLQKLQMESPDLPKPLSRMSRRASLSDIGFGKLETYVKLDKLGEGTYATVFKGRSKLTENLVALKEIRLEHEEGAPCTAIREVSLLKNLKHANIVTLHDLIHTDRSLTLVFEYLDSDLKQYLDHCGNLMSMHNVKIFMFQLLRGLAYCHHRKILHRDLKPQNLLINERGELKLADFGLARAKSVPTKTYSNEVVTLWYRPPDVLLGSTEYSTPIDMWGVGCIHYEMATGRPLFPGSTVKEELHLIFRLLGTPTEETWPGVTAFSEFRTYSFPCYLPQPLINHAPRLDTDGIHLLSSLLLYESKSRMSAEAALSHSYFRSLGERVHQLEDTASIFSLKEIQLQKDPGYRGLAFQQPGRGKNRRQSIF
Chain of CDK18/Cyclin Y (Q8ND76 whole entry partner): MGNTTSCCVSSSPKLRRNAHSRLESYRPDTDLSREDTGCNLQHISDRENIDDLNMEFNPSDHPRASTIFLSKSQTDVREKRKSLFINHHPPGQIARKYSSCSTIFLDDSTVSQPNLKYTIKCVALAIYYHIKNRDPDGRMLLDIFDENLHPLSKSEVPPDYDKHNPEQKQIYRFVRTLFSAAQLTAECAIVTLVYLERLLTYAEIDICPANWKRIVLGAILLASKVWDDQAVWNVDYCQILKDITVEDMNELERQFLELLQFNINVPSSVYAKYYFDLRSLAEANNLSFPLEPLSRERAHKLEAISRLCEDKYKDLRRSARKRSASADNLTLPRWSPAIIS
Chain of CDK19/Cyclin C (Q9BWU1 whole entry): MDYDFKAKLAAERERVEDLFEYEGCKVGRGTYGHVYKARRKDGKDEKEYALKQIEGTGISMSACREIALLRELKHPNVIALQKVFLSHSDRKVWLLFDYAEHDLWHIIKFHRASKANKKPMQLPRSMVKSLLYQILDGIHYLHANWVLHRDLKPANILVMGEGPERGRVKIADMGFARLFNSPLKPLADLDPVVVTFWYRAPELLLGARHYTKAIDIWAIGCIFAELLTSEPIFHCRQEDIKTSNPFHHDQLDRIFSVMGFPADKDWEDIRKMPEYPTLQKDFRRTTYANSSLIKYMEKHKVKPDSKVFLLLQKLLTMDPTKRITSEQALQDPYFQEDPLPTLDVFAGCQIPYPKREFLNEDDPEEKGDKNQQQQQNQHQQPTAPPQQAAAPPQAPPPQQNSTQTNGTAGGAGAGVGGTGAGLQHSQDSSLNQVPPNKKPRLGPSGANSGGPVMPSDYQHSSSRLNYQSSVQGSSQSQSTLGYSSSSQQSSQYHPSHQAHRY
Chain of CDK19/Cyclin C (P24863 whole entry partner): as the sequence (P24863 whole entry partner) above
Chain of CDK17/Cyclin Y (Q00537 whole entry): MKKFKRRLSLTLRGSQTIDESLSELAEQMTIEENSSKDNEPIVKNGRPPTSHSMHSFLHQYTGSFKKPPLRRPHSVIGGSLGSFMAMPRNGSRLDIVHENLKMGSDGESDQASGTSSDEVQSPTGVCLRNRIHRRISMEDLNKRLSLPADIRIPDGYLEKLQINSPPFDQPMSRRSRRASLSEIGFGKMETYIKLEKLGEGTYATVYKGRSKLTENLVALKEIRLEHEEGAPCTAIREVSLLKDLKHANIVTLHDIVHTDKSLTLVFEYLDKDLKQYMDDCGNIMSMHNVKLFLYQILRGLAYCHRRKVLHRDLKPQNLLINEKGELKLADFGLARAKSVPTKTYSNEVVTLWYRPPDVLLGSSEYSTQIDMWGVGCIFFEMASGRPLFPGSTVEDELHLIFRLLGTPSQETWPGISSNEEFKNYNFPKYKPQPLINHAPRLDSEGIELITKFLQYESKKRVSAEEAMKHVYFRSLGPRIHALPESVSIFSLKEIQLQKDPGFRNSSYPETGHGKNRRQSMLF
Chain of CDK17/Cyclin Y (Q8ND76 whole entry partner): as the sequence (Q8ND76 whole entry partner) above
Chain of CDK7 (P50613 whole entry): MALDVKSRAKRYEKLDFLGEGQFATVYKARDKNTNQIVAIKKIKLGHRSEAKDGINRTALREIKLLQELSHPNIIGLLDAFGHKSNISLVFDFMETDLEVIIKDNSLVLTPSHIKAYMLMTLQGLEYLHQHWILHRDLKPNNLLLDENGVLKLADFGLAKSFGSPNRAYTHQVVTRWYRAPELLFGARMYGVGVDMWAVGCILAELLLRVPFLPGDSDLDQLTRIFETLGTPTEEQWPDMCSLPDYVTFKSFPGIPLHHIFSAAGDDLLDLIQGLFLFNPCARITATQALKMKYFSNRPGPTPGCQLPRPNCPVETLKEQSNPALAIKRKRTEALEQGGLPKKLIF
Chain of CDK6/Cyclin D1 (Q00534 whole entry): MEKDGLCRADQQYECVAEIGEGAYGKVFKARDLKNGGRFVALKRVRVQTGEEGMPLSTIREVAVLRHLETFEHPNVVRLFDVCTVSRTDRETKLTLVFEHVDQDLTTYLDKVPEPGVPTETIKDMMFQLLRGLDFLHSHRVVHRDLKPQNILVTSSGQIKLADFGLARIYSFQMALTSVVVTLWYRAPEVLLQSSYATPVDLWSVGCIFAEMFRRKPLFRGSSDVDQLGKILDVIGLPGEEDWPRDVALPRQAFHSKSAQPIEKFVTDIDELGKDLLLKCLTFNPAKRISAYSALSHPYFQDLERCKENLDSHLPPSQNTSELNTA
Chain of CDK6/Cyclin D1 (P24385 whole entry partner): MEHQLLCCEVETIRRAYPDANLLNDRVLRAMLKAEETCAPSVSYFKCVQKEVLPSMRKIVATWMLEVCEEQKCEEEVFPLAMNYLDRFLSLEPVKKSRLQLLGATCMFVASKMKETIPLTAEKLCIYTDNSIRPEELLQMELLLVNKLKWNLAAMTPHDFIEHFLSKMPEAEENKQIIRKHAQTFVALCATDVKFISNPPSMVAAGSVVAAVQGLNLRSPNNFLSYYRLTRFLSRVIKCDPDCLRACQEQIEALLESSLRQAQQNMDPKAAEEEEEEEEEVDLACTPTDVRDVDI
Chain of CDK15/Cyclin Y (Q96Q40 whole entry): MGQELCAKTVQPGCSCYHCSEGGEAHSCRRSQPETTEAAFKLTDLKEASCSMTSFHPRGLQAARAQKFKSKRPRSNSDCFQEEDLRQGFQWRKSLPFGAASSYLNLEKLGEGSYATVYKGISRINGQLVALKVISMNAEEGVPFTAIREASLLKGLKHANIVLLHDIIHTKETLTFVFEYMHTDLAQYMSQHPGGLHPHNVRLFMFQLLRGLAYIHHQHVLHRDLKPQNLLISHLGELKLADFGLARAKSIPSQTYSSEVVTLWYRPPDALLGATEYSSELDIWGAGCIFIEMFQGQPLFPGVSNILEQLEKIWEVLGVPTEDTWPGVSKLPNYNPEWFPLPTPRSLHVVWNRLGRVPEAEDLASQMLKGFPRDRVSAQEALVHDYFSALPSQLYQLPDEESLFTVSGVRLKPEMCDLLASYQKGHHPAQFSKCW
Chain of CDK15/Cyclin Y (Q8ND76 whole entry partner): as the sequence (Q8ND76 whole entry partner) above

## CCc1cnn2c(NCc3ccc[n+]([O-])c3)cc(N3CCCC[C@H]3CCO)nc12 [Dinaciclib]
[1]; CDK7, experiment 1, read-out: Inhibition at 10µM (%)
  inhibition at 10 µM: 94.8%
[1]; CDK7, experiment 2, read-out: Inhibition at 10µM (%)
  inhibition at 10 µM: 91.5%
[1]; read-out: Inhibition at 10µM (%), CDK7, average
  inhibition at 10 µM: 93.1%
[2]; average
  inhibition at 10 µM: 24.5%
[2]; experiment 1
  inhibition at 10 µM: 40.6%
[2]; experiment 2
  inhibition at 10 µM: 8.4%
[3]; average
  inhibition at 10 µM: 33%
[3]; experiment 1
  inhibition at 10 µM: 36%
[3]; experiment 2
  inhibition at 10 µM: 29.9%
[4]; average
  inhibition at 10 µM: 45.5%
[4]; experiment 1
  inhibition at 10 µM: 46.1%
[4]; experiment 2
  inhibition at 10 µM: 45%
[5]; experiment 1
  inhibition at 10 µM: 71.7%
[5]; experiment 2
  inhibition at 10 µM: 78%
[6]
  IC50: 720 nM
[7]; average
  inhibition at 10 µM: 35.5%
[7]; experiment 1
  inhibition at 10 µM: 46.2%
[7]; experiment 2
  inhibition at 10 µM: 24.7%
[8]; IC50, [Probe 1] 0.5 µM
  IC50: 850 nM
[8]; IC50, [Probe 1] 1 µM
  IC50: 740 nM
[8]; average
  inhibition at 10 µM: 74.8%
[8]; experiment 1
  inhibition at 10 µM: 77.5%
[8]; experiment 2
  inhibition at 10 µM: 72.2%

## O=C(Nc1c[nH]nc1-c1ccccn1)c1nn(C2CCNCC2)cc1Cl [BDP5290]
[9]
  Inhibition at 10µM (%) Replicate 1: 19.1%
  Inhibition at 10µM (%) Replicate 2: 12.1%
[9]; average of replicates
  Inhibition at 10µM (%) Average: 15.6%
[10]
  Inhibition at 10µM (%) Replicate 1: -7.9%
  Inhibition at 10µM (%) Replicate 2: 7.7%
[10]; average of replicates
  Inhibition at 10µM (%) Average: -0.109%
[11]
  Inhibition at 10µM (%) Replicate 1: 4.4%
  Inhibition at 10µM (%) Replicate 2: 3.4%
[11]; average of replicates
  Inhibition at 10µM (%) Average: 3.9%
[12]
  Inhibition at 10µM (%) Replicate 1: 13.2%
  Inhibition at 10µM (%) Replicate 2: 14.4%
[12]; average of replicates
  Inhibition at 10µM (%) Average: 13.8%
[13]
  Inhibition at 10µM (%) Replicate 1: 7.9%
  Inhibition at 10µM (%) Replicate 2: -3.3%
[13]; average of replicates
  Inhibition at 10µM (%) Average: 2.3%
[14]
  Inhibition at 10µM (%) Replicate 1: 5.5%
  Inhibition at 10µM (%) Replicate 2: 5.4%
[14]; average of replicates
  Inhibition at 10µM (%) Average: 5.5%
[1]; CDK7, 10µM
  Inhibition at 10µM (%) Replicate 1: 9.8%
  Inhibition at 10µM (%) Replicate 2: 16.0%
[1]; CDK7, 10µM, average of replicates
  Inhibition at 10µM (%) Average: 12.9%
[2]; 10µM
  Inhibition at 10µM (%) Replicate 1: 6.1%
  Inhibition at 10µM (%) Replicate 2: -10.6%
[2]; 10µM, average of replicates
  Inhibition at 10µM (%) Average: -2.2%
[15]
  Inhibition at 10µM (%) Replicate 1: 12.5%
  Inhibition at 10µM (%) Replicate 2: 29.1%
[15]; average of replicates
  Inhibition at 10µM (%) Average: 20.8%
[3]; 10µM
  Inhibition at 10µM (%) Replicate 1: -5.6%
  Inhibition at 10µM (%) Replicate 2: 5.6%
[3]; 10µM, average of replicates
  Inhibition at 10µM (%) Average: -0.00201%
[4]; 10µM
  Inhibition at 10µM (%) Replicate 1: 8.9%
  Inhibition at 10µM (%) Replicate 2: -3.2%
[4]; 10µM, average of replicates
  Inhibition at 10µM (%) Average: 2.8%
[16]
  Inhibition at 10µM (%) Replicate 1: 6.2%
  Inhibition at 10µM (%) Replicate 2: -2.0%
[16]; average of replicates
  Inhibition at 10µM (%) Average: 2.1%
[17]
  Inhibition at 10µM (%) Replicate 1: 3.0%
  Inhibition at 10µM (%) Replicate 2: -9.6%
[17]; average of replicates
  Inhibition at 10µM (%) Average: -3.3%
[18]
  Inhibition at 10µM (%) Replicate 1: -4.4%
  Inhibition at 10µM (%) Replicate 2: -10.4%
[18]; average of replicates
  Inhibition at 10µM (%) Average: -7.4%
[19]
  Inhibition at 10µM (%) Replicate 1: 8.0%
  Inhibition at 10µM (%) Replicate 2: 6.5%
[19]; average of replicates
  Inhibition at 10µM (%) Average: 7.2%
[20]
  Inhibition at 10µM (%) Replicate 1: 4.2%
  Inhibition at 10µM (%) Replicate 2: -9.2%
[21]
  Inhibition at 10µM (%) Replicate 1: 0.247%
  Inhibition at 10µM (%) Replicate 2: 1.8%
[21]; average of replicates
  Inhibition at 10µM (%) Average: 1.0%
[22]
  Inhibition at 10µM (%) Replicate 1: 16.5%
  Inhibition at 10µM (%) Replicate 2: 10.0%
[22]; average of replicates
  Inhibition at 10µM (%) Average: 13.2%
[5]; CDK20/H, 10µM
  Inhibition at 10µM (%) Replicate 1: 14.8%
  Inhibition at 10µM (%) Replicate 2: 26.9%
[23]
  engagement of CDKs at concentrations up to 10μM: only weakly engaged
[7]; CDK19/C, 10µM
  Inhibition at 10µM (%) Replicate 1: 12.8%
  Inhibition at 10µM (%) Replicate 2: -7.7%
[7]; CDK19/C, 10µM, average of replicates
  Inhibition at 10µM (%) Average: 2.6%
[8]; CDK10/L2, 10µM
  Inhibition at 10µM (%) Replicate 1: 1.9%
  Inhibition at 10µM (%) Replicate 2: 8.8%
[8]; CDK10/L2, 10µM, average of replicates
  Inhibition at 10µM (%) Average: 5.4%
